The assay has as its system GEMIN6. Description: AP-MS chemical proteomics, GEMIN6. In kind it is binding, human. How it is done: The samples for AP-MS were prepared following pulldown procedure as previously described with minor modifications. Briefly, U2OS cells were lysed in RIPA buffer and the cell lysate was equally divided into two groups: (1) DMSO group (control group): the cell lysate was incubated with 20 μM biotin-labeled compound 1; (2) Cpmd 1 group (sample group): the cell lysate was incubated with 20 μM biotin-labeled compound 1 and 200 μM free compound 1. Each group contains three biological replicates. They were incubated overnight at 4 °C, then 30 μL streptavidin beads (Thermo Fisher, 20353) was added and incubated at 4 °C for 1 h. The beads were then washed with RIPA buffer for 3 times, 10 min/time. […]
Samples were analyzed by nanoLC-MS/MS (nanoRSLC, Thermo Fisher) using an Aurora series (Ion Opticks) reversed phase HPLC column (25 cm length × 75 µm inner diameter) and directly injected to an Orbitrap Eclipse (Thermo Fisher) using a 120 min gradient (mobile phase A = 0.1% formic acid, mobile phase B = 99.9% acetonitrile with 0.1% formic acid; hold 2% B for 5 min, 2–6% B in 0.1 min, 6–25% in 100 min, 25–50% in 15 min) at a flow rate of 350 nL/min. Eluted peptide ions were analyzed using a data-dependent acquisition (DDA) method with resolution settings of 120,000 and 15,000 (at m/z 200) for MS1 and MS2 scans, respectively. […]

From PMC9481570, “A small molecule antagonist of SMN disrupts the interaction between SMN and RNAP II” (Nature Communications, 2022) come the findings set out here.

As to `Cn1c2c(c(=N)c3c1CCC3)CCC2` [Compound 1, 4-methyl-2,3,4,5,6,7-hexahydrodicyclopenta[b,e]pyridin-8(1H)-imine], the Difference (GN=GEMIN6 (Q8WXD5), Cmpd minus DMSO, -LOG(P-value) 2.19893) is -5.406. Moreover, for the setting “biotin-Cmpd 1 pulldown, competition with 200 μM compound 1 relative to DMSO, U2OS lysate”, the “log2 FC (Cmpd 1/DMSO), GEMIN6” value is reported as −5.4.
